# Experimental data published in patent US5349127A, “Expression of herbicide metabolizing cytochromes P450” (priority 1992, dated 1994).
# Assays:
# [1] = tested on: Arabidopsis thaliana seedlings; assay: Seed germination assay of transgenic Arabidopsis (Example 26); format: in vivo; set-up: Visual Inhibition Ratings of Seedlings: key: 4: complete inhibition; 1: no inhibition; conditions: for #R number of resistant seedlings / #S number of sensitive seedlings / % R percent of seedlings which are resistant: 10015 5 ppb
# Method: T2 seed was harvested from selected putative transformants and sown on GM medium containing 50 mg/l kanamycin and that containing 5 ppb 10015. Plates were sealed with filter tape, cold treated for 2 or more days at 4° C., and then incubated for 10 to 20 days at 23° C. under constant illumination as described above. Seedlings were scored as resistant (green, true leaves develop) and sensitive (no true leaves develop). […] The percent of resistant seedlings is inversely proportional with the two selections. Kanamycin is a positive selection for those seedlings that carry the foreign DNA.
# Selected T2 seedlings that were kanamycin resistant were transplanted to soil and were grown to maturity at 21° C. daytime (14 hours) 18° C. nighttime (10 hours) at 65-80% relative humidity. T3 seed was collected, sterilized, and germinated on GM medium containing 50 mg/l kanamycin and that containing 5 ppb 10015. Plates were sealed with filter tape, cold treated for 2 or more days at 4° C., and then incubated for 10 to 20 days at 23° C. under constant illumination as described above. Two of the six plants produced seed that was 100% resistant to kanamycin and 100% sensitive to 10015; they are homozygous for the inserted DNA. The other four parents are heterozygous and show an inverse proportion of kanamycin and 10015 resistant seedlings. […] Therefore, seedlings expressing the P450SU1 gene can be negatively selected.
# Germination assays of homozygous seed on various concentrations of 10015 were performed to assay the relative sensitivity to 10015 produced by the three different promoters and between independent transformants. Seed was sterilized, sown on GM medium with 0, 0.5, 1, 2, 5, 10 and 20 ppb 10015, incubated, and scored as described above. In addition, seedlings are rated on a scale of one to three for the amount of growth.
# Over 500 seed that are homozygous for the P450SU1 coding region were sown on the same plates. The plates were sealed, cold-treated, and incubated as previously described. […] Wild type seedlings were unaffected by the dying transformed seedlings. In addition, when greater than 10,000 seed of a homozygous Cab-SU111 plant was sown on GM medium with 10 ppb 10015, then cold-treated and incubated as described above, eighteen seedlings were resistant to 10015 and were unaffected by neighboring seedlings.
# S. griseolus ATCC11796 = assay: Metabolism of 10015 analogs to 10014 (Example 17); format: in vitro ADME, Streptomyces griseolus
# Method: Cultures of S. griseolus ATCC11796 were cultivated in sporulation-broth (50ml) at 30° C. with shaking for 17 hours. Each culture was then resuspended in 25 ml fresh sporulation broth, 3.0 mg sulfonylurea was added, and the culture reincubated for 4 days. Aliquots of the medium were then analyzed by HPLC. Formation of 10014 was measured based on similarity of retention time and UV spectrum of the test metabolite to that formed by metabolism of 10015.
smiles,measurement,setting,value
COc1cc(OC)nc(NC(=O)NS(=O)(=O)c2cccc3c2S(=O)(=O)N(C(C)C)C3)n1 [compound 10015],Visual Inhibition Ratings of Seedlings,"[1]; 12.1.1 Cab-SU111, 1 ppb 10015",1
same,Visual Inhibition Ratings of Seedlings,"[1]; 12.1.1 Cab-SU111, 2 ppb 10015",1
same,Visual Inhibition Ratings of Seedlings,"[1]; 12.1.1 Cab-SU111, 5 ppb 10015",2
same,Visual Inhibition Ratings of Seedlings,"[1]; 12.1.1 Cab-SU111, 10 ppb 10015",4
same,Visual Inhibition Ratings of Seedlings,"[1]; 12.1.1 Cab-SU111, 20 ppb 10015",4
same,Visual Inhibition Ratings of Seedlings,"[1]; 12.16.2 Cab-SU111, 1 ppb 10015",1
same,Visual Inhibition Ratings of Seedlings,"[1]; 12.16.2 Cab-SU111, 2 ppb 10015",1
same,Visual Inhibition Ratings of Seedlings,"[1]; 12.16.2 Cab-SU111, 5 ppb 10015",1
same,Visual Inhibition Ratings of Seedlings,"[1]; 12.16.2 Cab-SU111, 10 ppb 10015",1
same,Visual Inhibition Ratings of Seedlings,"[1]; 12.16.2 Cab-SU111, 20 ppb 10015",1
same,Visual Inhibition Ratings of Seedlings,"[1]; 12.20.5 Cab-SU111, 1 ppb 10015",1
same,Visual Inhibition Ratings of Seedlings,"[1]; 12.20.5 Cab-SU111, 2 ppb 10015",2
same,Visual Inhibition Ratings of Seedlings,"[1]; 12.20.5 Cab-SU111, 5 ppb 10015",3
same,Visual Inhibition Ratings of Seedlings,"[1]; 12.20.5 Cab-SU111, 10 ppb 10015",4
same,Visual Inhibition Ratings of Seedlings,"[1]; 12.20.5 Cab-SU111, 20 ppb 10015",4
same,Visual Inhibition Ratings of Seedlings,"[1]; 13.3.1 SU18, 1 ppb 10015",1
same,Visual Inhibition Ratings of Seedlings,"[1]; 13.3.1 SU18, 2 ppb 10015",1
same,Visual Inhibition Ratings of Seedlings,"[1]; 13.3.1 SU18, 5 ppb 10015",2
same,Visual Inhibition Ratings of Seedlings,"[1]; 13.3.1 SU18, 10 ppb 10015",4
same,Visual Inhibition Ratings of Seedlings,"[1]; 13.3.1 SU18, 20 ppb 10015",4
same,Visual Inhibition Ratings of Seedlings,"[1]; 13.4.6 SSU-SU111, 1 ppb 10015",1
same,Visual Inhibition Ratings of Seedlings,"[1]; 13.4.6 SSU-SU111, 2 ppb 10015",1
same,Visual Inhibition Ratings of Seedlings,"[1]; 13.4.6 SSU-SU111, 5 ppb 10015",3
same,Visual Inhibition Ratings of Seedlings,"[1]; 13.4.6 SSU-SU111, 10 ppb 10015",4
same,Visual Inhibition Ratings of Seedlings,"[1]; 13.4.6 SSU-SU111, 20 ppb 10015",4
same,Visual Inhibition Ratings of Seedlings,"[1]; 17.1.10 SU18, 1 ppb 10015",1
same,Visual Inhibition Ratings of Seedlings,"[1]; 17.1.10 SU18, 2 ppb 10015",1
same,Visual Inhibition Ratings of Seedlings,"[1]; 17.1.10 SU18, 5 ppb 10015",3
same,Visual Inhibition Ratings of Seedlings,"[1]; 17.1.10 SU18, 10 ppb 10015",4
same,Visual Inhibition Ratings of Seedlings,"[1]; 17.1.10 SU18, 20 ppb 10015",4
same,Visual Inhibition Ratings of Seedlings,"[1]; 17.17.3 SU18, 1 ppb 10015",1
same,Visual Inhibition Ratings of Seedlings,"[1]; 17.17.3 SU18, 5 ppb 10015",1
same,Visual Inhibition Ratings of Seedlings,"[1]; 17.17.3 SU18, 10 ppb 10015",2
same,Visual Inhibition Ratings of Seedlings,"[1]; 17.17.3 SU18, 20 ppb 10015",4
same,Visual Inhibition Ratings of Seedlings,"[1]; 17.74.4 SSU-SU111, 1 ppb 10015",1
same,Visual Inhibition Ratings of Seedlings,"[1]; 17.74.4 SSU-SU111, 2 ppb 10015",1
same,Visual Inhibition Ratings of Seedlings,"[1]; 17.74.4 SSU-SU111, 5 ppb 10015",2
same,Visual Inhibition Ratings of Seedlings,"[1]; 17.74.4 SSU-SU111, 10 ppb 10015",3
same,Visual Inhibition Ratings of Seedlings,"[1]; 17.74.4 SSU-SU111, 20 ppb 10015",3
same,Visual Inhibition Ratings of Seedlings,"[1]; 17.92.3 SSU-SU111, 1 ppb 10015",1
same,Visual Inhibition Ratings of Seedlings,"[1]; 17.92.3 SSU-SU111, 2 ppb 10015",1
same,Visual Inhibition Ratings of Seedlings,"[1]; 17.92.3 SSU-SU111, 5 ppb 10015",1
same,Visual Inhibition Ratings of Seedlings,"[1]; 17.92.3 SSU-SU111, 10 ppb 10015",1
same,Visual Inhibition Ratings of Seedlings,"[1]; 17.92.3 SSU-SU111, 20 ppb 10015",1
same,#R number of resistant seedlings,"[1]; T2 seed ID 12-1, pCab-SU111",3
same,#S number of sensitive seedlings,"[1]; T2 seed ID 12-1, pCab-SU111",10
same,% R percent of seedlings which are resistant,"[1]; T2 seed ID 12-1, pCab-SU111",23%
same,#R number of resistant seedlings,"[1]; T2 seed ID 12-2, pCab-SU111",13
same,#S number of sensitive seedlings,"[1]; T2 seed ID 12-2, pCab-SU111",0
same,% R percent of seedlings which are resistant,"[1]; T2 seed ID 12-2, pCab-SU111",100%
same,#R number of resistant seedlings,"[1]; T2 seed ID 12-4, pCab-SU111",12
same,#S number of sensitive seedlings,"[1]; T2 seed ID 12-4, pCab-SU111",8
same,% R percent of seedlings which are resistant,"[1]; T2 seed ID 12-4, pCab-SU111",60%
same,#R number of resistant seedlings,"[1]; T2 seed ID 12-5, pCab-SU111",15
same,#S number of sensitive seedlings,"[1]; T2 seed ID 12-5, pCab-SU111",0
same,% R percent of seedlings which are resistant,"[1]; T2 seed ID 12-5, pCab-SU111",100%
same,#R number of resistant seedlings,"[1]; T2 seed ID 12-6, pCab-SU111",5
same,#S number of sensitive seedlings,"[1]; T2 seed ID 12-6, pCab-SU111",9
same,% R percent of seedlings which are resistant,"[1]; T2 seed ID 12-6, pCab-SU111",36%
same,#R number of resistant seedlings,"[1]; T2 seed ID 12-7, pCab-SU111",9
same,#S number of sensitive seedlings,"[1]; T2 seed ID 12-7, pCab-SU111",13
same,% R percent of seedlings which are resistant,"[1]; T2 seed ID 12-7, pCab-SU111",40%
same,#R number of resistant seedlings,"[1]; T2 seed ID 12-8, pCab-SU111",1
same,#S number of sensitive seedlings,"[1]; T2 seed ID 12-8, pCab-SU111",7
same,% R percent of seedlings which are resistant,"[1]; T2 seed ID 12-8, pCab-SU111",13%
same,#R number of resistant seedlings,"[1]; T2 seed ID 12-9, pCab-SU111",3
same,#S number of sensitive seedlings,"[1]; T2 seed ID 12-9, pCab-SU111",9
same,% R percent of seedlings which are resistant,"[1]; T2 seed ID 12-9, pCab-SU111",25%
same,#R number of resistant seedlings,"[1]; T2 seed ID 12-10, pCab-SU111",9
same,#S number of sensitive seedlings,"[1]; T2 seed ID 12-10, pCab-SU111",0
same,% R percent of seedlings which are resistant,"[1]; T2 seed ID 12-10, pCab-SU111",100%
same,#R number of resistant seedlings,"[1]; T2 seed ID 12-11, pCab-SU111",4
same,#S number of sensitive seedlings,"[1]; T2 seed ID 12-11, pCab-SU111",0
same,% R percent of seedlings which are resistant,"[1]; T2 seed ID 12-11, pCab-SU111",100%
same,#R number of resistant seedlings,"[1]; T3 seed ID 12-1-1, pCab-SU111",0
same,#S number of sensitive seedlings,"[1]; T3 seed ID 12-1-1, pCab-SU111",196
same,% R percent of seedlings which are resistant,"[1]; T3 seed ID 12-1-1, pCab-SU111",0%
same,#R number of resistant seedlings,"[1]; T3 seed ID 12-1-2, pCab-SU111",0
same,#S number of sensitive seedlings,"[1]; T3 seed ID 12-1-2, pCab-SU111",191
same,% R percent of seedlings which are resistant,"[1]; T3 seed ID 12-1-2, pCab-SU111",0%
same,#R number of resistant seedlings,"[1]; T3 seed ID 12-1-3, pCab-SU111",42
same,#S number of sensitive seedlings,"[1]; T3 seed ID 12-1-3, pCab-SU111",90
same,% R percent of seedlings which are resistant,"[1]; T3 seed ID 12-1-3, pCab-SU111",32%
same,#R number of resistant seedlings,"[1]; T3 seed ID 12-1-4, pCab-SU111",80
same,#S number of sensitive seedlings,"[1]; T3 seed ID 12-1-4, pCab-SU111",129
same,% R percent of seedlings which are resistant,"[1]; T3 seed ID 12-1-4, pCab-SU111",37%
same,#R number of resistant seedlings,"[1]; T3 seed ID 12-1-5, pCab-SU111",99
same,#S number of sensitive seedlings,"[1]; T3 seed ID 12-1-5, pCab-SU111",177
same,% R percent of seedlings which are resistant,"[1]; T3 seed ID 12-1-5, pCab-SU111",36%
same,#R number of resistant seedlings,"[1]; T3 seed ID 12-1-6, pCab-SU111",83
same,#S number of sensitive seedlings,"[1]; T3 seed ID 12-1-6, pCab-SU111",152
same,% R percent of seedlings which are resistant,"[1]; T3 seed ID 12-1-6, pCab-SU111",35%
same,#R number of resistant seedlings,[1]; WT,58
same,#S number of sensitive seedlings,[1]; WT,5
same,% R percent of seedlings which are resistant,[1]; WT,92%
same,Visual Inhibition Ratings of Seedlings,"[1]; Wild type, 1 ppb 10015",1
same,Visual Inhibition Ratings of Seedlings,"[1]; Wild type, 2 ppb 10015",1
same,Visual Inhibition Ratings of Seedlings,"[1]; Wild type, 5 ppb 10015",1
same,Visual Inhibition Ratings of Seedlings,"[1]; Wild type, 10 ppb 10015",1
same,Visual Inhibition Ratings of Seedlings,"[1]; Wild type, 20 ppb 10015",1
same,metabolism by P450SU1 to phytotoxic 10014,S. griseolus ATCC11796,metabolized
